This is an account of results in patent US9585954B2, “Mucosal immunization” (ARIZONA BOARD OF REGENTS FOR AND ON BEHALF OF ARIZONA STATE …, priority 2009, dated 2017).

For the assay, the system named is antigen-relevant immune responses to NVCP VLP. Further details: species or system experimental animals. The settings on record: in vivo.

Turning to `CCNCc1nc2c(N)nc3ccccc3c2n1CC(C)(C)O` [gardiquimod], the antigen-relevant immune responses entry is given as “much more robust immune responses”.
